Columns and labels:
5-HT2C receptor = target: T1, 5-HT2C receptor (Homo sapiens, UniProt P28335); assay: 5-HT2 receptor-mediated Gq activation via Gq/γ1 dissociation BRET (5-HT2C); format: cell-based; settings: primary 5-HT2C signaling via Gq-coupled mechanism compared to β-arrestin
T1 construct: expressed in transfected cells; host or cells: HEK293T
T1 sequence (P28335 33-458): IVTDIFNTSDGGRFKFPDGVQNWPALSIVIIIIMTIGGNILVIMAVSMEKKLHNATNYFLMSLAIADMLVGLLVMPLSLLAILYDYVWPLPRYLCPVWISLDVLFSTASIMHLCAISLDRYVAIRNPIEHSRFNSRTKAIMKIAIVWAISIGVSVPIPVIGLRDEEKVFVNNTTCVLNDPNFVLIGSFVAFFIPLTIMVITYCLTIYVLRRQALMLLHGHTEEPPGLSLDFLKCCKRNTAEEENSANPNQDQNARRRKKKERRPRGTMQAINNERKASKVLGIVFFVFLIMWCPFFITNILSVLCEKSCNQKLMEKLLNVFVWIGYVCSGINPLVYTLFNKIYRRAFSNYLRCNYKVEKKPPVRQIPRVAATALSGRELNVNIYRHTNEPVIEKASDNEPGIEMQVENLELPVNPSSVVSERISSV
Text: (§1) To measure 5-HT2 receptor-mediated Gq activation via Gq/y1 dissociation as measured by Bioluminescence Resonance Energy Transfer (BRET) (McCorvy J D, Wacker D, Wang S, Agegnehu B, Liu J, Lansu K, Tribo A R, Olsen R H J, Che T, Jin J, Roth B L. Structural determinants of 5-HT2B receptor activation and biased agonism. Nat Struct Mol Biol. 2018; 25(9): 787-96), HEK293T cells were sub-cultured in Dulbecco's Modified Eagle Medium (DMEM) supplemented with 10% dialyzed fetal bovine serum (FBS) and were co-transfected in a 1:1:1:1 ratio with Rluc8-fused human Gaq (Gaq-Rluc8), a GFP2-fused to the C-terminus of human Gy1(Gy1-GFP2), human G131, and 5-HT2 receptor using TransiT-2020. After at least 18-24 hours, transfected cells were plated in poly-lysine coated 96-well white clear bottom cell culture plates in DMEM containing 1% dialyzed FBS at a density of 25,000-40,000 cells in 200 μL per well and incubated overnight. The following day, medium was decanted, and cells were washed with 60 μL of drug buffer (1×HBSS, 20 mM HEPES, pH 7.4), then 60 μL of drug buffer was added per well. Cells were pre-incubated at in a humidified atmosphere at 37° C. before receiving drug stimulation. […] Substrate addition occurred 15 minutes before reading and utilized 10 μL of the Rluc substrate coelenterazine 400a for Gq dissociation BRET^2 (Prolume/Nanolight, 5 μM final concentration). Plates were read for luminescence at 400 nm and fluorescent GFP2 emission at 510 nm at 1 second per well using a Mithras LB940 multimode microplate reader (e.g. one provided by Berthold). The BRET ratios of fluorescence/luminescence were calculated per well and were plotted as a function of drug concentration using Graphpad Prism 8 (Graphpad Software Inc., San Diego, CA). Data were normalized to % 5-HT stimulation and analyzed using nonlinear regression “log(agonist) vs. response” to yield Emax and EC50 parameter estimates. […]

5-HT2A receptor = target: T2, 5-HT2A receptor (Homo sapiens, UniProt P28223); assay: 5-HT2 receptor-mediated Gq activation via Gq/γ1 dissociation BRET (5-HT2A); format: cell-based; settings: predicted based on the level of 5-HT2A agonist efficacy
T2 construct: expressed in transfected cells; host or cells: HEK293T
T2 sequence (P28223 whole entry): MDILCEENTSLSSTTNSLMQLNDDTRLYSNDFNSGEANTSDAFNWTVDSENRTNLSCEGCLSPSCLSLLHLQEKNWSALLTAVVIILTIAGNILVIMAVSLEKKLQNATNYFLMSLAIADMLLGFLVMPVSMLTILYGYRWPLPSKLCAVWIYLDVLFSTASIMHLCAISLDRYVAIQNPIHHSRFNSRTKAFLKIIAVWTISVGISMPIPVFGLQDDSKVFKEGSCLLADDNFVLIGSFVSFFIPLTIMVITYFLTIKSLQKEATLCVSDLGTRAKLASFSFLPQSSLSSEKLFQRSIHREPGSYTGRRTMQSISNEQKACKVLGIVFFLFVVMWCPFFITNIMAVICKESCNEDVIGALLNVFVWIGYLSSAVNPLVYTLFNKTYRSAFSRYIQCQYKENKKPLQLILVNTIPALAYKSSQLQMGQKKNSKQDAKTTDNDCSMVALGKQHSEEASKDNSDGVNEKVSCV
Text: as §1

Compound | 5-HT2C Gq signaling bias? (5-HT2C receptor) | Hall or N-Hall? (hallucinogenic or non-hallucinogenic plastogenic effect) (5-HT2A receptor)
CNC[C@H]1C[C@@H]1c1cc(F)ccc1OC | Yes | N-Hall
CNCC1CC1c1cc(F)ccc1SC (stereo not drawn) | Yes | N-Hall
CSc1ccc(F)cc1C1CC1CN(C)C (stereo not drawn) | Yes | N-Hall

Source: US20260216101A1, “Selective Serotonin Receptor Modulators and Methods of Making and Using the Same” (Park City Bio, LLC, priority 2024, published 2026)
